Measured values taken from patent US20140336267A1, “UTILIZATION OF THE FUNCTION OF RARE SUGAR AS PROMOTER FOR THE MIGRATION OF GLUCOKINASE FROM NUCLEUS TO CYTOPLASM” (NATIONAL UNIVERSITY CORPORATION KAGAWA UNIVERSITY, priority 2006, published 2014).

Key:
[1] = molecular target: T1, glucokinase (Rattus norvegicus, UniProt P17712); assay: Intracellular transfer of hepatic glucokinase with ketose (fluorescence antibody method, rat hepatocyte primary culture); format: cell-based
T1 construct: stained by a fluorescence antibody method using an anti-glucokinase antibody; endogenous in cells; host or cells: primary culture of hepatocytes from male Wistar rats
T1 sequence (P17712 1-465 isoform P17712-3): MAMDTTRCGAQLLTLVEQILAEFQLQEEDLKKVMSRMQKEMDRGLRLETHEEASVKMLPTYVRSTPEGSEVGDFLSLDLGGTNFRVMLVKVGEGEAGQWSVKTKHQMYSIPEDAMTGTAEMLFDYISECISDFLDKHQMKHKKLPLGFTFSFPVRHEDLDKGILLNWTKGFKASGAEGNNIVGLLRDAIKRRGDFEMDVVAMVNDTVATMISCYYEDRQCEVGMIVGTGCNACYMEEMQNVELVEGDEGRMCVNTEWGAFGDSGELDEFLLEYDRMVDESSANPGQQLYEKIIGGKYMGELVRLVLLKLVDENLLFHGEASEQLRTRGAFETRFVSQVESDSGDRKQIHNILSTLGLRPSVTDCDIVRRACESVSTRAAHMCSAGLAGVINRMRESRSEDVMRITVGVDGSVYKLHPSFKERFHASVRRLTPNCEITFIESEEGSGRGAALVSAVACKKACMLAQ
Method: Wistar rats (male, aged 5 to 8 weeks) were used. […] The hepatocytes were fixed with 4% para-formaldehyde, and stained by a fluorescence antibody method using an anti-glucokinase antibody. A fluorescent image obtained with a co-focus laser microscope was analyzed with the NIH Image to calculate the fluorescence intensity in the nucleus and the cytoplasm, which were defined as the glucokinase level in the nucleus and the cytoplasm. […] By the same method as described above, the glucokinase level in the intracellular nucleus and the cytoplasm was determined.

[2] = system: hepatocytes; assay: Lactic acid generation in hepatocytes; format: cell-based, rat
Method: […] As a control, DMSO was added.
(§1) Cultured hepatocytes were incubated in an MEM culture medium containing 5 mM or 25 mM D-glucose with an action of promoting glucokinase transfer from nucleus to cytoplasm. Glucokinase transfer from nucleus to cytoplasm, glycogen synthesis and lactic acid generation were increased. Via glucose, glucokinase transfer from nucleus to cytoplasm occurs, which raises cytoplasmic glucokinase activity to possibly promote the sugar metabolism in liver. […] (FIGS. 4, 6, 7 and 8)

[3] = molecular target: T1, glucokinase; assay: Hepatic glucokinase transfer from nucleus to cytoplasm after oral sugar alone, Wistar rats (Example 2); format: in vivo; conditions: Wistar rats starved overnight; 2 g/kg oral; 30 minutes later
Method: Thirty minutes later, the rats were subjected to perfusion and fixing with 4% para-formaldehyde under anesthesia, from which liver was immediately resected to prepare frozen sections. The distribution of glucokinase in nucleus and cytoplasm was analyzed with the fluorescence antibody method using an anti-glucokinase antibody. Simultaneously, blood was drawn out from the tail vein and the portal vein, to assay blood glucose levels.

[4] = molecular target: T1, glucokinase; assay: Hepatic glucokinase transfer from nucleus to cytoplasm after oral sugar given with D-glucose, Wistar rats (Example 3); format: in vivo; conditions: 30 minutes later
Method: Male Wistar rats starved overnight were given 2 g/kg D-glucose orally. Simultaneously, 0.2 g/kg D-psicose, D-fructose or a mixture of D-psicose and D-fructose at 1:3 were given orally. Thirty minutes later, the rats were perfused and fixed with 4% para-formaldehyde under anesthesia, from which liver was immediately resected to prepare frozen sections. The distribution of glucokinase in the nucleus and the cytoplasm was analyzed with the fluorescence antibody method using an anti-glucokinase antibody. Simultaneously, blood was drawn out from the tail vein and the portal vein, to assay blood glucose levels.

[5] = molecular target: T1, glucokinase; assay: Hepatic glucokinase transfer from nucleus to cytoplasm in Goto-Kakizaki rats (type 2 diabetes model); format: in vivo; conditions: for cytoplasmic glucokinase level (fluorescence intensity analysis): central vein and portal vein regions
Method: (§2) The action of suppressing blood glucose increase with D-fructose at a low concentration was examined. To Goto-Kakizaki rats as a model animal of type 2 diabetes mellitus, D-glucose to 2 g/[…] or D-glucose to 2 g/l kg body weight+D-fructose to 0.2 g/1 kg body weight was administered orally, to examine the modification of glucokinase transfer from the nucleus to the cytoplasm in hepatocytes and the change of the blood glucose levels in the portal vein and the tail vein.
(§3) 2 g/kg D-glucose is orally given to male Goto-Kakizaki rats starved overnight. Simultaneously, 0.2 g/kg D-psicose was orally given. Thirty minutes later and 60 minutes later, the rats were perfused and fixed with 4% para-formaldehyde under anesthesia, from which liver was immediately resected to prepare frozen sections. The distribution of hepatic glucokinase in nucleus and cytoplasm was analyzed with the fluorescence antibody method using an anti-glucokinase antibody. Simultaneously, blood was drawn out from the tail vein and the portal vein, to assay blood glucose level and insulin concentration. Herein, liver is divided in the portal vein region and the central vein region of liver. It has been known that the activity of glucokinase in the central vein region is higher by 1.3 fold to 1.5 fold than the activity thereof in the portal vein region. Therefore, the glucokinase distributions in the nucleus and the cytoplasm in the central vein region and the portal vein region were analyzed.

[6] = system: Goto-Kakizaki rats; assay: Blood glucose levels in tail vein and portal vein after sugar loading, Goto-Kakizaki rats; format: in vivo, rat
Method: as §2, §3

[7] = system: Goto-Kakizaki rats; assay: Insulin concentrations in tail vein and portal vein under sugar loading, Goto-Kakizaki rats; format: in vivo, rat; conditions: 0.2 g/kg with 2 g/kg D-glucose oral, 30 minutes and 60 minutes, vs D-glucose alone
Method: as §3

[8] = system: primary culture of rat hepatocytes; assay: Glucose phosphorylation rate in cultured hepatocytes; format: cell-based
Method: Subsequently, the primary culture was incubated at various D-fructose concentrations in the presence of 25 mM D-glucose. […] The results agreed with the results reported so far.

[9] = molecular target: T1, glucokinase; assay: Glucokinase distribution in primary hepatocytes with D-glucose and D-fructose (fluorescence antibody method); format: cell-based
Method: In the presence of 5 mM D-glucose, glucokinase mainly existed in the cell nucleus.
as §1

[10] = system: hepatocytes; assay: Glycogen synthesis in cultured hepatocytes; format: cell-based, rat; conditions: MEM culture medium containing 5 mM or 25 mM D-glucose
Method: as §1

[11] = ketose added, MEM culture medium with 5 mM or 15 mM D-glucose
[12] = each D-ketose added at 0.5 mM, MEM with 15 mM glucose, DMSO control
[13] = Wistar rats, 0.2 g/kg oral simultaneously with 2 g/kg D-glucose
[14] = 0.2 g/kg with 2 g/kg D-glucose oral, compared with D-glucose alone, portal and central vein regions
[15] = 0.2 g/kg with 2 g/kg D-glucose oral, 30 minutes and 60 minutes, vs D-glucose alone
[16] = MEM culture medium containing 5 mM or 25 mM D-glucose
[17] = 2 g/kg D-glucose oral alone, 30 and 60 minutes, vs starved

**Q.** For O=C(CO)[C@H](O)[C@H](O)[C@H](O)CO [D-psicose], which “glucokinase transfer from nucleus to cytoplasm” value ([1]; even at a high ketose concentration) is on record?
**A.** Its value is “exerted an action to promote glucokinase transfer from nucleus to cytoplasm”.

**Q.** And the “glucokinase transfer from nucleus to cytoplasm” value [1, 11]?
**A.** Its value is “glucokinase transferred from nucleus to cytoplasm”.

**Q.** And the lactic acid generation [2, 12]?
**A.** The lactic acid generation was “lactic acid generation was increased”.

**Q.** What about the “glucokinase transfer from the nucleus to the cytoplasm in hepatocytes” value (shortened to “glucokinase transfer … in hepatocytes”) [3] of the same molecule?
**A.** Its value is “glucokinase transfer from the nucleus to the cytoplasm could be observed”.

**Q.** And the “glucokinase transfer … in hepatocytes” value [4, 13]?
**A.** Its value is “glucokinase was transferred to the cytoplasm apparently but more weakly than with D-fructose”.

**Q.** And the “cytoplasmic glucokinase fluorescence (liver)” value [5, 14]?
**A.** The value was “increased the cytoplasmic fluorescence”.

**Q.** And the “nuclear glucokinase fluorescence (liver)” value [5, 14]?
**A.** Its value is “significantly reduced the nuclear fluorescence”.

**Q.** And the “cytoplasmic glucokinase level (fluorescence intensity analysis)” value ([5]; simultaneous administration with D-glucose vs D-glucose alone)?
**A.** The value was “further increased the cytoplasmic glucokinase level”.

**Q.** What about the “glucose concentration in the portal vein” value [6, 15] of the same molecule?
**A.** Its value is “significantly lower values”.

**Q.** What about the “glucose concentration in the tail vein” value [6, 15] of the same molecule?
**A.** The value was “significantly lower values”.

**Q.** And the “insulin concentration in the portal vein” value [7]?
**A.** Its value is “significantly lower values”.

**Q.** What about the “insulin concentration in the tail vein” value [7] of the same molecule?
**A.** Its value is “significantly lower values”.

**Q.** What does the source list for O=C(CO)[C@@H](O)[C@H](O)[C@H](O)CO [D-fructose]?
**A.** glucokinase transfer from nucleus to cytoplasm ([1]; ketose added at 1 mM or more, 5 mM or 15 mM D-glucose): glucokinase transfer from nucleus to cytoplasm was gradually reduced; glucokinase transfer from nucleus to cytoplasm [1, 11]: glucokinase transferred from nucleus to cytoplasm; glucose phosphorylation ([8]; 0.5 mM D-fructose present vs absent, various glucose concentrations): enhanced glucose phosphorylation in the hepatocytes; glucose phosphorylation ([8]; above 0.5 mM D-fructose, 25 mM D-glucose): glucose phosphorylation was reduced; glucose phosphorylation ([8]; up to 0.5 mM D-fructose, 25 mM D-glucose): glucose phosphorylation was enhanced as the D-fructose concentration was raised; lactic acid generation [2, 12]: lactic acid generation was increased; glucokinase transfer from the nucleus to the cytoplasm ([9]; 0.5 mM D-fructose present vs absent, 5 mM or 25 mM D-glucose, 37° C. 30 minutes): the glucokinase transfer from the nucleus to the cytoplasm increased; glucokinase transfer from the nucleus to the cytoplasm in hepatocytes [3]: a higher level of the transfer was observed than with D-psicose; glucokinase transfer from the nucleus to the cytoplasm in hepatocytes [4, 13]: glucokinase was mostly transferred to the cytoplasm; glucokinase transfer from the nucleus to the cytoplasm in hepatocytes ([5]; D-glucose 2 g/kg + D-fructose 0.2 g/kg oral, compared with D-glucose alone): significantly increased; blood glucose level in the portal vein ([6]; additional supplement of D-fructose compared with D-glucose alone): suppressed significantly; blood glucose level in the portal vein ([6]; effect of D-fructose loading added to D-glucose): No difference was observed

**Q.** Which lactic acid generation [2, 16] does the source give for O=C[C@H](O)[C@@H](O)[C@H](O)[C@H](O)CO [D-glucose] here?
**A.** The lactic acid generation was “increased”.

**Q.** What about the cytoplasmic glucokinase ([9]; 25 mM D-glucose, 37° C. for 30 minutes, vs 5 mM D-glucose) of the same molecule?
**A.** The cytoplasmic glucokinase was “the cytoplasmic glucokinase was increased”.

**Q.** And the “glucokinase transfer from nucleus to cytoplasm” value [9, 16]?
**A.** The value was “increased”.

**Q.** What about the glycogen synthesis [10] of the same molecule?
**A.** The glycogen synthesis was “increased”.

**Q.** What about the “glucokinase transfer … in hepatocytes” value ([4]; Wistar rats starved overnight, 2 g/kg D-glucose oral alone) of the same molecule?
**A.** Its value is “glucokinase transfer from the nucleus to the cytoplasm occurred slightly”.

**Q.** And the “glucokinase fluorescence in the cytoplasm (liver)” value [5, 17]?
**A.** The value was “fluorescence in the cytoplasm was inversely increased”.

**Q.** And the “glucokinase fluorescence in the nucleus (liver)” value [5, 17]?
**A.** Its value is “Fluorescence in the nucleus was reduced”.

**Q.** And the “glucokinase transfer … in hepatocytes” value ([5]; oral D-glucose alone)?
**A.** Its value is “glucokinase transferred from the nucleus to the cytoplasm”.

**Q.** What about the “cytoplasmic glucokinase level (fluorescence intensity analysis)” value ([5]; oral D-glucose vs 24-hour fasting) of the same molecule?
**A.** The value was “significantly increased”.
